Results reported in paper PMC8508785, “Synthesis and In Silico Docking of New Pyrazolo[4,3-e]pyrido[1,2-a]pyrimidine-based Cytotoxic Agents” (International Journal of Molecular Sciences, 2021).

What was measured:
[1] = test system: FaDu cells (pharynx carcinoma); experiment: SRB cytotoxicity assay, FaDu; format: cell-based; conditions: Homo sapiens, 72 h of treatment
Method: (§1) The synthesized compounds were evaluated for their cytotoxic activity by a photometric […] (SRB) on different human cancer cell lines, malignant melanoma (A375), colon (HT29), breast (MCF-7), human ovarian carcinoma (A2780) and pharynx carcinoma (FaDu); for comparison, non-malignant mouse embryonic fibroblasts (NIH 3T3) and human embryonic kidney cells (HEK293) were included; doxorubicin (DX) was used as a positive control.
(§2) The cell lines were obtained from Department of oncology (MartinLutherUniversity Halle-Wittenberg). Cultures were maintained as monolayers in RPMI 1640 medium with L-glutamine (Capricorn Scientific GmbH, Ebsdorfergrund, Germany) supplemented with 10% heat-inactivated fetal bovine serum (Sigma-Aldrich Chemie GmbH, Steinheim, Germany) and penicillin/streptomycin (1%, Capricorn Scientific GmbH, Ebsdorfergrund, Germany) at 37 °C in a humidified atmosphere with 5% CO2.
(§3) The cytotoxicity of the compounds was evaluated using the sulforhodamine-B (Kiton-Red S, ABCR: Karlsruhe, Germany) microculture colorimetric assay using […] cells in 96-well plates with the seeding of the cells on day 0,by applying appropriate cell densities to prevent confluence of the cells during the period of the experiment. On day 1, the cells were treated with six different concentrations (1, 3, 7, 12, 20 and 30 μM); thereby, the final concentration of DMSO was always <0.5%, generally regarded as non-toxic to the cells. On day 4, the supernatant medium was discarded; the cells were fixed with 10% trichloroacetic acid. After another day at 4 °C, the cells were washed in a strip washer and dyed with the SRB solution (100 μL, 0.4% in 1% acetic acid) for about 20 min to be followed by washing of the plates (four times, 1% acetic acid) and air-drying overnight. Furthermore, Tris base solution (200 μL, 10 mM) was added to each well, and absorbance was measured at λ = 570 nm employing a reader (96 wells, Tecan Spectra, Crailsheim, Germany). The EC50 values were averaged from three independent experiments performed each in triplicate, calculated from semi-logarithmic dose–response curves applying a non-linear four-parameter Hill-slope equation (GraphPad Prism5 vom Graphpad Software Inc., San Diego, USA; the variables top and bottom were set to 100 and 0, respectively).

HT29 cells (colon) = experiment: SRB cytotoxicity assay, HT29; format: cell-based; conditions: Homo sapiens, HT-29, 72 h of treatment
Method: as §1, §2, §3

[2] = test system: A2780 cells (human ovarian carcinoma); experiment: SRB cytotoxicity assay, A2780; format: cell-based; conditions: 72 h of treatment
Method: as §1, §2, §3

[3] = test system: HEK293 human embryonic kidney cells; experiment: SRB cytotoxicity assay, HEK293; format: cell-based; conditions: 72 h of treatment, non-malignant HEK293
Method: as §1, §2, §3

MCF-7 cells (breast) = experiment: SRB cytotoxicity assay, MCF-7; format: cell-based; conditions: Homo sapiens, MCF7, 72 h of treatment
Method: as §1, §2, §3

[4] = test system: NIH 3T3 non-malignant mouse embryonic fibroblasts; experiment: SRB cytotoxicity assay, NIH 3T3; format: cell-based; conditions: NIH3T3, 72 h of treatment, non-malignant NIH 3T3
Method: as §1, §2, §3

[5] = test system: human tumor cell lines A375, HT29, MCF7, A2780, FaDu; experiment: SRB cytotoxicity assay, panel of human tumor cell lines; format: cell-based; conditions: one statement for several/all five cancer cell lines, read-out: EC50 across the cancer cell lines
Method: as §1, §2
as §3, with “After another day at 4 °C, the cells were washed in a strip washer and dyed with the SRB solution (100 μL, 0.4% in 1% acetic acid) for about 20 min to be followed by washing of the plates (four times, 1% acetic acid) and air-drying overnight.” left out

[6] = test system: A375 cells (malignant melanoma); experiment: SRB cytotoxicity assay, A375; format: cell-based; conditions: Homo sapiens, A-375, 72 h of treatment
Method: as §1, §2, §3

SMILES | melting point [°C] | EC50 [1] [µM] | EC50 (HT29 cells (colon)) [µM] | EC50 [2] [µM] | EC50 [3] [µM] | EC50 (MCF-7 cells (breast)) [µM] | EC50 [4] [µM] | EC50 [5] [µM] | EC50 [6] [µM]
CC(=O)C1=C(C)N2C(=C(C#N)C1c1ccc(C)cc1)N=C(N)c1c(C)nn(-c3ccccc3)c12 (stereo not shown) [Compound 7b] | 167 | 22.3 ± 2.7 | 17.5 ± 1.8 | 14.6 ± 2.2 | 12.4 ± 0.9 | 12.2 ± 1.3 | 21.3 ± 0.9 |  | 12.9 ± 1.6
COc1ccc(C2C(C#N)=C3N=C(N)c4c(C)nn(-c5ccccc5)c4N3C(C)=C2C(C)=O)cc1 (stereo not shown) [Compound 7d, 8-Acetyl-4-Amino-7-(4-methoxyphenyl)-3,9-dimethyl-1-phenyl-1,7-dihydropyrazolo[4,3-e] Pyrido[1,2-a]pyrimidine-6-carbonitrile] | 160 | > 30 | 28.3 ± 3.5 | 21.7 ± 3.9 | 16.7 ± 1.2 | 18.4 ± 2.3 | > 30 |  | 21.5 ± 3.6
CC(=O)C1=C(C)N2C(=C(C#N)C1c1ccc([N+](=O)[O-])cc1)N=C(N)c1c(C)nn(-c3ccccc3)c12 (stereo not shown) [Compound 7g, 8-Acetyl-4-amino-3,9-dimethyl-7-(4-nitrophenyl)-1-phenyl-1,7-dihydropyrazolo[4,3-e] Pyrido[1,2-a]pyrimidine-6-carbonitrile] | 164 | > 30 | 25.9 ± 3.4 | 14.5 ± 2.2 | 17 ± 1.3 | 15.7 ± 2.2 | > 30 |  | 16.2 ± 2
COc1ccc(C2C(C#N)=C3N=C(N)c4c(C)nn(-c5ccccc5)c4N3C(C)=C2C(C)=O)cc1OC (stereo not shown) [Compound 7h, 8-Acetyl-4-amino-7-(3,4-dimethoxyphenyl)-3,9-dimethyl-1-phenyl-1,7-dihydropyrazolo[4,3-e] Pyrido[1,2-a]pyrimidine-6-carbonitrile] | 260 | > 30 | > 30 | 27.5 ± 8.1 | 24 ± 3.4 | 25.1 ± 2.8 | > 30 |  | 22.1 ± 4.9
CC(=O)C1=C(C)N2C(=C(C#N)C1c1ccc(Cl)c(Cl)c1)N=C(N)c1c(C)nn(-c3ccccc3)c12 (stereo not shown) [Compound 7i, 8-Acetyl-4-amino-7-(3,4-dichlorophenyl)-3,9-dimethyl-1-phenyl-1,7-dihydropyrazolo[4,3-e] Pyrido[1,2-a]pyrimidine-6-carbonitrile] | 235 |  |  |  |  |  |  |  | 
CC(=O)C1=C(C)N2C(=C(C#N)C1c1ccc([N+](=O)[O-])s1)N=C(N)c1c(C)nn(-c3ccccc3)c12 (stereo not shown) [Compound 7j, 8-Acetyl-4-amino-3,9-dimethyl-7-(5-nitro-2-thienyl)-1-phenyl-1,7-dihydropyrazolo[4,3-e] Pyrido[1,2-a]pyrimidine-6-carbonitrile] | 262 |  |  |  |  |  |  |  | 
CC(=O)C1=C(C)N2C(=C(C#N)C1c1ccc3ccccc3c1)N=C(N)c1c(C)nn(-c3ccccc3)c12 (stereo not shown) [Compound 7k, 8-Acetyl-4-amino-3,9-dimethyl-7-(2-naphthyl)-1-phenyl-1,7-dihydropyrazolo[4,3-e] Pyrido[1,2-a]pyrimidine-6-carbonitrile] | 270 |  |  |  |  |  |  |  | 
COc1cccc2c1C(=O)c1c(O)c3c(c(O)c1C2=O)C[C@@](O)(C(=O)CO)C[C@@H]3O[C@H]1C[C@H](N)[C@H](O)[C@H](C)O1 [DX, doxorubicin, reference compound] |  |  | 0.9 ± 0.01 | 0.01 ± 0.01 |  | 1.1 ± 0.3 | 0.4 ± 0.07 |  | 

More lines, main results first:

melting point [°C] | SMILES | EC50 [1] [µM] | EC50 (HT29 cells (colon)) [µM] | EC50 [2] [µM] | EC50 [3] [µM] | EC50 (MCF-7 cells (breast)) [µM] | EC50 [4] [µM] | EC50 [5] [µM] | EC50 [6] [µM]
132 | Cc1nn(-c2ccccc2)c(N)c1C#N [Compound 3, 5-Amino-3-methyl-1-phenyl-1H-pyrazole-4-carbonitrile] | > 30 | > 30 | > 30 | > 30 | > 30 | > 30 | > 30 | > 30
109 | CC(=O)/C=C(\C)Nc1c(C#N)c(C)nn1-c1ccccc1 [Compound 5, 3-Methyl-5-{[(1E)-1-methyl-3-oxobut-1-en-1-yl]amino}-1-phenyl-1H-pyrazole-4-carbonitrile] | > 30 | > 30 | > 30 | > 30 | > 30 | > 30 | > 30 | > 30
167 | CC(=O)C1=C(C)N2C(=C(C#N)C1c1ccc(Cl)cc1)N=C(N)c1c(C)nn(-c3ccccc3)c12 (stereo not shown) [Compound 7a, 8-Acetyl-4-amino-7-(4-chlorophenyl)-3,9-dimethyl-1-phenyl-1,7-dihydropyrazolo[4,3-e] Pyrido[1,2-a]pyrimidine-6-carbonitrile] | > 30 | 29.9 ± 1.4 | 18 ± 3 | 15.8 ± 2 | 17.2 ± 1.4 | 23 ± 1.4 |  | 19.3 ± 3
198 | CC(=O)C1=C(C)N2C(=C(C#N)C1c1ccccc1)N=C(N)c1c(C)nn(-c3ccccc3)c12 (stereo not shown) [Compound 7c, 8-Acetyl-4-amino-3,9-dimethyl-1,7-diphenyl-1,7-dihydropyrazolo[4,3-e]Pyrido[1,2-a]pyrimidine-6-carbonitrile] | > 30 | > 30 | 25.4 ± 2.5 | 7.7 ± 1.1 | 19.5 ± 1.1 | > 30 |  | 19.3 ± 3.8
192 | CC(=O)C1=C(C)N2C(=C(C#N)C1c1ccc(Br)cc1)N=C(N)c1c(C)nn(-c3ccccc3)c12 (stereo not shown) [Compound 7e, 8-Acetyl-4-amino-7-(4-bromophenyl)-3,9-dimethyl-1-phenyl-1,7-dihydropyrazolo[4,3-e] Pyrido[1,2-a]pyrimidine-6-carbonitrile] | 13.5 ± 1.5 | 13.3 ± 1.8 | 9.1 ± 1.6 | 6.6 ± 0.6 | 9.2 ± 0.7 | 12.3 ± 0.7 | 9.1 to 13.5 | 9.4 ± 1.2
259 | CC(=O)C1=C(C)N2C(=C(C#N)C1c1ccc(F)cc1)N=C(N)c1c(C)nn(-c3ccccc3)c12 (stereo not shown) [Compound 7f, 8-Acetyl-4-amino-7-(4-fluorophenyl)-3,9-dimethyl-1-phenyl-1,7-sihydropyrazolo[4,3-e] Pyrido[1,2-a]pyrimidine-6-carbonitrile] | > 30 | 24.7 ± 4.4 | 19.2 ± 3.9 | 14.7 ± 1.4 | 19.2 ± 1.3 | 24.1 ± 2.8 |  | 18.1 ± 3.3
306 | CC(=O)C1=C(C)N2C(=C(C#N)C1c1cccnc1)N=C(N)c1c(C)nn(-c3ccccc3)c12 (stereo not shown) [Compound 7l, 8-Acetyl-4-amino-3,9-dimethyl-1-phenyl-7-pyridin-3-yl-1,7-dihydropyrazolo[4,3-e] Pyrido[1,2-a]pyrimidine-6-carbonitrile] |  |  |  |  |  |  |  | 
